In assay [1] the target is T1, Rab15 (Homo sapiens, UniProt P59190).
T1 construct: near full-length without C-terminal prenylation region; pET-28a, His6 tag cut by TEV; E. coli BL21(DE3)
T1 sequence (P59190 1-208 limits assumed): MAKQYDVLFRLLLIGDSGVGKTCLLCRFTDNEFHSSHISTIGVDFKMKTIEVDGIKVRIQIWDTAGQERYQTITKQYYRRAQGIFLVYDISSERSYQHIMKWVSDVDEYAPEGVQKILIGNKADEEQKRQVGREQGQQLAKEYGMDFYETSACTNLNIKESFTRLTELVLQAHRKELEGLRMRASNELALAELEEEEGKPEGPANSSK
The assay is described as follows: dynamic scanning fluorimetry (SYPRO Orange). Conditions: 1 mM nucleotide, 4 uM protein, 2.5 mM MgCl2, pH 7.4. The assay is classed as binding.

Assay [2] concerns the target T2, Rab29 (Homo sapiens, UniProt O14966).
T2 construct: near full-length without C-terminal prenylation region; pET-28a, His6 tag cut by TEV; E. coli BL21(DE3)
T2 sequence (O14966 1-195 limits assumed): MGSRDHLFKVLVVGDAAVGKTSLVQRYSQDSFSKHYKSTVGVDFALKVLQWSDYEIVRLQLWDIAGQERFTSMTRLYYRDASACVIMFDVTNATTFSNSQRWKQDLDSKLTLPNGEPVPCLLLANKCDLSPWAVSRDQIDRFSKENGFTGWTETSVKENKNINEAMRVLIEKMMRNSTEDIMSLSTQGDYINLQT
Description: dynamic scanning fluorimetry (SYPRO Orange). As to conditions: 1 mM nucleotide, 4 uM protein, 2.5 mM MgCl2, pH 7.4. The assay is classed as binding.

Assay [3] deals with T3, Rab12 (Homo sapiens, UniProt Q6IQ22).
T3 construct: near full-length without C-terminal prenylation region; pET-28a, His6 tag cut by TEV; E. coli BL21(DE3)
T3 sequence (Q6IQ22 97-318 limits assumed): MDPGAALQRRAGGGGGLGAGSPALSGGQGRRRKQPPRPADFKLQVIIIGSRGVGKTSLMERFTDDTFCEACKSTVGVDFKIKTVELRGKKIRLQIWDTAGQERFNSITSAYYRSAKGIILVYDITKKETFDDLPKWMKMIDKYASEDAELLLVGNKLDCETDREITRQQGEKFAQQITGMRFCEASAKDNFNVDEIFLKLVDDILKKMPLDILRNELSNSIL
The assay is described as follows: dynamic scanning fluorimetry (SYPRO Orange). The assay is classed as binding. As to conditions: 1 mM nucleotide, 4 uM protein, 2.5 mM MgCl2, pH 7.4.

In assay [4] the target is T4, Rab1A (Homo sapiens, UniProt P62820).
T4 construct: near full-length without C-terminal prenylation region; pET-28a, His6 tag cut by TEV; E. coli BL21(DE3)
Description: dynamic scanning fluorimetry (SYPRO Orange). The assay is classed as binding. Conditions: 1 mM nucleotide, 4 uM protein, 2.5 mM MgCl2, pH 7.4.

The target in assay [5] is T5, Rab9A (Homo sapiens, UniProt P51151).
T5 construct: near full-length without C-terminal prenylation region; pET-28a, His6 tag cut by TEV; E. coli BL21(DE3)
T5 sequence (P51151 1-180 limits assumed): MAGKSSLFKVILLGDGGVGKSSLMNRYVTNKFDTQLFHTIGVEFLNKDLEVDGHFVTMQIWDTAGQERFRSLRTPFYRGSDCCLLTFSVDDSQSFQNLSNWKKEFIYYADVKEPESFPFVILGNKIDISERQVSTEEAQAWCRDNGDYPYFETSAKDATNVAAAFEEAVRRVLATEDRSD
The assay is described as follows: dynamic scanning fluorimetry (SYPRO Orange). The assay is classed as binding. As to conditions: 1 mM nucleotide, 4 uM protein, 2.5 mM MgCl2, pH 7.4.

The target in assay [6] is T6, Rab10 (Homo sapiens, UniProt P61026).
T6 construct: near full-length without C-terminal prenylation region; pET-28a, His6 tag cut by TEV; E. coli BL21(DE3)
T6 sequence (P61026 1-181 limits assumed): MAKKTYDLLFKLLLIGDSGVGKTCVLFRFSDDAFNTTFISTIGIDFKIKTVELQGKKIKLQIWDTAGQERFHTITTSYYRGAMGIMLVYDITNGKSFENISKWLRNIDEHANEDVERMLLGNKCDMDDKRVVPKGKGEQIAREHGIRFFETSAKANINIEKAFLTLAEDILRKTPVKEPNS
Description: dynamic scanning fluorimetry (SYPRO Orange). The assay is classed as binding. As to conditions: 1 mM nucleotide, 4 uM protein, 2.5 mM MgCl2, pH 7.4.

Assay [7] addresses T7, Rab2A (Homo sapiens, UniProt P61019).
T7 construct: near full-length without C-terminal prenylation region; pET-28a, His6 tag cut by TEV; E. coli BL21(DE3)
Description: dynamic scanning fluorimetry (SYPRO Orange). Format: binding. As to conditions: 1 mM nucleotide, 4 uM protein, 2.5 mM MgCl2, pH 7.4.

Assay [8] deals with T8, Rab13 (Homo sapiens, UniProt P51153).
T8 construct: near full-length without C-terminal prenylation region; pET-28a, His6 tag cut by TEV; E. coli BL21(DE3)
T8 sequence (P51153 1-180 limits assumed): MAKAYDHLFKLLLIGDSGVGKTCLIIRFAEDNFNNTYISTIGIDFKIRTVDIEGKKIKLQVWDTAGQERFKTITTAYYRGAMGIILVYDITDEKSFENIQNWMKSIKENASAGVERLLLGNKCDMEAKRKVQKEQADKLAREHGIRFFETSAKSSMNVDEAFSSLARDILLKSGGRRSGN
Description: dynamic scanning fluorimetry (SYPRO Orange). Format: binding. Conditions: 1 mM nucleotide, 4 uM protein, 2.5 mM MgCl2, pH 7.4.

Assay [9] concerns the target T9, Rab43 (Homo sapiens, UniProt Q86YS6).
T9 construct: near full-length without C-terminal prenylation region; pET-28a, His6 tag cut by TEV; E. coli BL21(DE3)
T9 sequence (Q86YS6 1-185 limits assumed): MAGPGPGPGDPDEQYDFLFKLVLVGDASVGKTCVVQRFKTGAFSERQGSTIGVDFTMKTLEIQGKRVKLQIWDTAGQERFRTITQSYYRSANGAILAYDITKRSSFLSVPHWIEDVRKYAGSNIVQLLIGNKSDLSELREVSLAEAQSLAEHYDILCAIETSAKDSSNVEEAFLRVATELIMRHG
The assay is described as follows: dynamic scanning fluorimetry (SYPRO Orange). Format: binding. Conditions: 1 mM nucleotide, 4 uM protein, 2.5 mM MgCl2, pH 7.4.

Assay [10] deals with T10, Rab3A (Homo sapiens, UniProt P20336).
T10 construct: near full-length without C-terminal prenylation region; pET-28a, His6 tag cut by TEV; E. coli BL21(DE3)
T10 sequence (P20336 1-200 limits assumed): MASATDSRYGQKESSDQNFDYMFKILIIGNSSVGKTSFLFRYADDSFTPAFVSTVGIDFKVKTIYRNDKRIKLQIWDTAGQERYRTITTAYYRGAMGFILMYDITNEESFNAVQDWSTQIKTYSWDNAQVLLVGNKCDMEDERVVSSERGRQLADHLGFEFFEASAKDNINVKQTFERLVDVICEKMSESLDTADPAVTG
The assay is described as follows: dynamic scanning fluorimetry (SYPRO Orange). As to conditions: 1 mM nucleotide, 4 uM protein, 2.5 mM MgCl2, pH 7.4. The assay is classed as binding.

The target in assay [11] is T11, Rab7A (Homo sapiens, UniProt P51149).
T11 construct: near full-length without C-terminal prenylation region; pET-28a, His6 tag cut by TEV; E. coli BL21(DE3)
The assay is described as follows: dynamic scanning fluorimetry (SYPRO Orange). Format: binding. As to conditions: 1 mM nucleotide, 4 uM protein, 2.5 mM MgCl2, pH 7.4.

In assay [12] the target is T12, Rab8A (Homo sapiens, UniProt P61006).
T12 construct: near full-length without C-terminal prenylation region; pET-28a, His6 tag cut by TEV; E. coli BL21(DE3)
T12 sequence (P61006 1-203 limits assumed): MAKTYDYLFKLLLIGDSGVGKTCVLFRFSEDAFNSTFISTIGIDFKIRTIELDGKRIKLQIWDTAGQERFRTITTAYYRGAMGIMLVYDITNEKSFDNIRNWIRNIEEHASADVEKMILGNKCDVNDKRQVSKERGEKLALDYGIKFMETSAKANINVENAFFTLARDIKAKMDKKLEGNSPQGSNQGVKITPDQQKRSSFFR
The assay is described as follows: dynamic scanning fluorimetry (SYPRO Orange). Format: binding. Conditions: 1 mM nucleotide, 4 uM protein, 2.5 mM MgCl2, pH 7.4; shift relative to apo.

The target of assay [13] is T13, Rab8B (Homo sapiens, UniProt Q92930).
T13 construct: near full-length without C-terminal prenylation region; pET-28a, His6 tag cut by TEV; E. coli BL21(DE3)
T13 sequence (Q92930 1-203 limits assumed): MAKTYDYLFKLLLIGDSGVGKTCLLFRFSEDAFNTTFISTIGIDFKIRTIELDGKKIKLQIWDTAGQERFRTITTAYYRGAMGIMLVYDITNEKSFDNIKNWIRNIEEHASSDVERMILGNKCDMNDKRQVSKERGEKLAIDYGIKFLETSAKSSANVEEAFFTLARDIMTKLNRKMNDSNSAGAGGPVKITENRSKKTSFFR
The assay is described as follows: dynamic scanning fluorimetry (SYPRO Orange). The assay is classed as binding. As to conditions: 1 mM nucleotide, 4 uM protein, 2.5 mM MgCl2, pH 7.4.

The target in assay [14] is LRRK2 (Leucine-rich repeat kinase 2) (UniProt Q5S007).
Sequence of LRRK2 (Leucine-rich repeat kinase 2) (Q5S007 whole entry): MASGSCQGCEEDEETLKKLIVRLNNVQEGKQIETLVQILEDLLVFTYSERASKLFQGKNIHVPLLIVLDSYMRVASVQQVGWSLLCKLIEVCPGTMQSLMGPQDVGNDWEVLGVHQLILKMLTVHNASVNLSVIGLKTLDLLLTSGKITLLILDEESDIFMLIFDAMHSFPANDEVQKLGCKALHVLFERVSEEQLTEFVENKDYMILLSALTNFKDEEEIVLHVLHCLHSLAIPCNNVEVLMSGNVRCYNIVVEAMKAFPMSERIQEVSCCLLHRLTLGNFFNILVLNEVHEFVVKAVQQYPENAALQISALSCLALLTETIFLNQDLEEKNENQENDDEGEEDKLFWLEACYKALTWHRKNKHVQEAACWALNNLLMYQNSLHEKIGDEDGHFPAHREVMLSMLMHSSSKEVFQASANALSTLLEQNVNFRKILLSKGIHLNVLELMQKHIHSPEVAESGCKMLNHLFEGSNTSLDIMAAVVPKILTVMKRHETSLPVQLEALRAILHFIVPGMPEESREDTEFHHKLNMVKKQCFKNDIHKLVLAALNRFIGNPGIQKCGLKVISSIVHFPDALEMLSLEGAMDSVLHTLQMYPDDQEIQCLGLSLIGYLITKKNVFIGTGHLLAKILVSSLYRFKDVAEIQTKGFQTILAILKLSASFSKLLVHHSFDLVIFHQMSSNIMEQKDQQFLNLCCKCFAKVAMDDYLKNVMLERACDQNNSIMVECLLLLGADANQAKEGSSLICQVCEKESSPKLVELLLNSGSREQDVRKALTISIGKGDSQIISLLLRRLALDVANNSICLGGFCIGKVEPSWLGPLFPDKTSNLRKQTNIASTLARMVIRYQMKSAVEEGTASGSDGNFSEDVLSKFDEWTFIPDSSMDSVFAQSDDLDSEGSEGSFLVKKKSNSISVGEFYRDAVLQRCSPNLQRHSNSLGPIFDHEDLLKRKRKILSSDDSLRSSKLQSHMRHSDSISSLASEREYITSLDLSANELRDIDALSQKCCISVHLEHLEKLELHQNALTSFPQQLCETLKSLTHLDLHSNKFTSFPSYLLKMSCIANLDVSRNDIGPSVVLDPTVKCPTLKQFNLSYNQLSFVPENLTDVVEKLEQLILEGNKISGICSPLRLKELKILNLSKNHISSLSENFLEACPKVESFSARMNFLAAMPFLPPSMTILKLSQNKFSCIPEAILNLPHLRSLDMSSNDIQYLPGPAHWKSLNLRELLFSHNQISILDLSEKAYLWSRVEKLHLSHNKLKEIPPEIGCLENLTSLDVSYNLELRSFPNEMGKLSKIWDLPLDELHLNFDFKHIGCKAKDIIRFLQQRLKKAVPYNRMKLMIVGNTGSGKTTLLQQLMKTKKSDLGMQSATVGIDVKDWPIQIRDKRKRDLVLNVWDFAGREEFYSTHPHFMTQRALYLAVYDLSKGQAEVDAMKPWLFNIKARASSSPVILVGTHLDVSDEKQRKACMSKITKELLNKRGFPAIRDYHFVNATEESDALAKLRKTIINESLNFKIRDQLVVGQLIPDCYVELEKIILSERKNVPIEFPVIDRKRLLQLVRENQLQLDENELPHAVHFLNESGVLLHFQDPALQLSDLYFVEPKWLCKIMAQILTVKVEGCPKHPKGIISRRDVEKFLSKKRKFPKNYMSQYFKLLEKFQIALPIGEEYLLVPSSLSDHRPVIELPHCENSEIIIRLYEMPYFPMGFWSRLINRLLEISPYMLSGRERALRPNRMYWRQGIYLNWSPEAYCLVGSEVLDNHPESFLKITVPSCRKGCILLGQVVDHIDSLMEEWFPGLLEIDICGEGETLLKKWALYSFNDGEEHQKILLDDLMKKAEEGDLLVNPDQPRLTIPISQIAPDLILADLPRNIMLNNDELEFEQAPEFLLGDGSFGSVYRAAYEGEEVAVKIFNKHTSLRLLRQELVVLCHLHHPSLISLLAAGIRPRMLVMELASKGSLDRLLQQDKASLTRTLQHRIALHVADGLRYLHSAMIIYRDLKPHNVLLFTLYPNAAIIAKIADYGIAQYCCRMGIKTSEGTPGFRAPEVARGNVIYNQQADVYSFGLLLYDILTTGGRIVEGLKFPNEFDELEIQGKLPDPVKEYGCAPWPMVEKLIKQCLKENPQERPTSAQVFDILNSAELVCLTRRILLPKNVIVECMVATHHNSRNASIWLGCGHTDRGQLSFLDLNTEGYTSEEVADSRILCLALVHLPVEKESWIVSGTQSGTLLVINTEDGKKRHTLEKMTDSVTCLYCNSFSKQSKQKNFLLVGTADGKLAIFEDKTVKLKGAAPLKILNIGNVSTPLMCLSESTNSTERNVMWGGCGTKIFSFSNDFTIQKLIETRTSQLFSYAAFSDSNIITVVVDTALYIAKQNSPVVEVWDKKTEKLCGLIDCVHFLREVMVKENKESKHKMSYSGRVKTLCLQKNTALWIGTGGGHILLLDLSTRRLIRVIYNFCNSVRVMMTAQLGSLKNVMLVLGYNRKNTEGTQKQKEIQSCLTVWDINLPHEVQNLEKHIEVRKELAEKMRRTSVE

T11 sequence (P51149 1-185 limits assumed): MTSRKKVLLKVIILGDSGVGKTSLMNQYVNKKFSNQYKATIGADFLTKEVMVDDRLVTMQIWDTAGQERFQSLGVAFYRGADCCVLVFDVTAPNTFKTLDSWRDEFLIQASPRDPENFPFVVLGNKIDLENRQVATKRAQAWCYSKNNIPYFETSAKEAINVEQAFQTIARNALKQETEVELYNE
T4 sequence (P62820 1-203 limits assumed): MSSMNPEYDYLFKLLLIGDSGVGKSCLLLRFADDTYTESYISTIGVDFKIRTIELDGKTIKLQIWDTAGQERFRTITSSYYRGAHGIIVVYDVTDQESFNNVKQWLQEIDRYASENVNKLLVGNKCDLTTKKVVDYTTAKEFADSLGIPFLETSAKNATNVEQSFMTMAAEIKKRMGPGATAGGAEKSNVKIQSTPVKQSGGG
T7 sequence (P61019 1-210 limits assumed): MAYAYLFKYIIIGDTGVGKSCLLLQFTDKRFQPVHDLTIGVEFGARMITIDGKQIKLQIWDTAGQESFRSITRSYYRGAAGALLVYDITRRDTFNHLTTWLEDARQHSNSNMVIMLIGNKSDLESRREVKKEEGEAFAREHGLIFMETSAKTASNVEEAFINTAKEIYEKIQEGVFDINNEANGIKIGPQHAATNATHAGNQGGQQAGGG

Take `Nc1nc2c(ncn2[C@@H]2O[C@H](COP(=O)(O)OP(=O)(O)O)[C@@H](O)[C@H]2O)c(=O)[nH]1` [GDP]: the Tm result in assay [1] was “All Rabs from the panel bound to and were stabilized by guanine nucleotides”; in [2], “All Rabs from the panel bound to and were stabilized by guanine nucleotides”; in assay [3] it was “All Rabs from the panel bound to and were stabilized by guanine nucleotides”; in assay [4] it was “All Rabs from the panel bound to and were stabilized by guanine nucleotides”; in assay [5], “for several Rabs including Rab9A and Rab13, the Rab:GDP and Rab:GTP complexes displayed equal stability”; in assay [6], “All Rabs from the panel bound to and were stabilized by guanine nucleotides”. Also, the Tm entry in assay [7] was “All Rabs from the panel bound to and were stabilized by guanine nucleotides”; in assay [8] it was “for several Rabs including Rab9A and Rab13, the Rab:GDP and Rab:GTP complexes displayed equal stability”; in [9] it was “All Rabs from the panel bound to and were stabilized by guanine nucleotides”; in assay [10] it was “All Rabs from the panel bound to and were stabilized by guanine nucleotides”; in assay [11] it was “All Rabs from the panel bound to and were stabilized by guanine nucleotides”; in assay [13], “All Rabs from the panel bound to and were stabilized by guanine nucleotides”. Further, the dTm in assay [12] was determined as 15 K.
On to `Nc1nc2c(ncn2[C@@H]2O[C@H](COP(=O)(O)OP(=O)(O)OP(=O)(O)O)[C@@H](O)[C@H]2O)c(=O)[nH]1` [GTP], for which the Tm result in assay [5] is “for several Rabs including Rab9A and Rab13, the Rab:GDP and Rab:GTP complexes displayed equal stability”; in [6], “All Rabs from the panel bound to and were stabilized by guanine nucleotides”; in assay [8], “for several Rabs including Rab9A and Rab13, the Rab:GDP and Rab:GTP complexes displayed equal stability”; in [11], “All Rabs from the panel bound to and were stabilized by guanine nucleotides”. In assay [12], the dTm is on record as 21 K.
Compound “Rab8A E108R (from UniProt P61006 1-207) (natural protein)” gave a T72 phosphograde of the Rab8A:GDP variant after phosphorylation by LRRK2, relative to wildtype Rab8A (ESI-TOF MS kinase activity assay) (fold (increase)) in [14] of 18.
“Rab8A R104A (from UniProt P61006 1-207) (natural protein)” gave a T72 phosphograde of the Rab8A:GDP variant after phosphorylation by LRRK2, relative to wildtype Rab8A (ESI-TOF MS kinase activity assay) (fold (reduced)) in [14] of 2.
